# Measured values published in patent publication US11453683B1, “KRas G12D inhibitors” (Mirati Therapeutics, Inc., priority 2019, dated 2022).
# Tested on: KRas G12D-mediated phosphorylation of ERK
# Test: Inhibition of KRas G12D-mediated phosphorylation of ERK in AGS cells
# Assay type: cell-based
# Settings: Homo sapiens; AGS cells expressing G12D, 3 hours, phospho-ERK normalized to GAPDH
# Method: Cells were plated in tissue culture treated 96 well plates at a density of 40,000 cells/well and allowed to attach for 12-14 hours. Diluted compounds were then added in a final concentration of 0.5% DMSO. After 3 hours, the medium was removed, 150 μL of 4.0% formaldehyde was added and the plates incubated at room temperature for 20 minutes. The plates were washed with PBS, and permeabilized with 150 μL of ice cold 100% methanol for 10 minutes. Non-specific antibody binding to the plates was blocked using 100 μL Licor blocking buffer (Li-Cor Biotechnology, Lincoln Nebr.) for 1 hour at room temperature.
# The amount of phospho-ERK was determined using an antibody specific for the phosphorylated form of ERK and compared to the amount of GAPDH. Primary antibodies used for the detection were added as follows: Phospho-ERK (Cell Signaling cs-9101) diluted 1:500 and GAPDH (Millipore MAB374) diluted 1:5000 in Licor block+0.05% Tween 20. The plates were incubated for 2 hours at room temperature. The plates were washed with PBS+0.05% Tween 20.
# Secondary antibodies used to visualize primary antibodies were added as follows: Anti-rabbit-680 diluted 1:1000 and Anti-mouse-800 diluted 1:1000 both in Licor block+0.05% TweeN2O, and were incubated for 1 hour at room temperature. The plates were washed with PBS+0.05% Tween 20. A 100 μL aliquot of PBS was added to each well and the plates were read on a Li-Cor Odyssey CLX plate reader.
# The phospho-ERK (Thr202/Tyr204 signal was normalized to the GAPDH signal for each well and percent of DMSO control values were calculated. IC50 values were generated using a 4-parameter fit of the dose response curve
row,SMILES,IC50 [µM]
1,"FCCc1cccc2cccc(-c3ncc4c(N5C[C@H]6CC[C@@H](C5)N6)nc(OCC56CCCN5CCC6)nc4c3F)c12 [Example 248, 4-((1R,5S)-3,8-diazabicyclo[3.2.1]octan-3-yl)-8-fluoro-7-(8-(2-fluoroethyl)naphthalen-1-yl)-2-((tetrahydro-1H-pyrrolizin-7a(5H)-yl)methoxy)pyrido[4,3-d]pyrimidine]",1.08
2,"CN1CC[C@@H](COc2nc(N3C[C@H]4CC[C@@H](C3)N4)c3cnc(-c4cccc5cccc(Cl)c45)c(F)c3n2)C1 [Example 356, 4-((1R,5S)-3,8-diazabicyclo[3.2.1]octan-3-yl)-7-(8-chloronaphthalen-1-yl)-8-fluoro-2-(((R)-1-methylpyrrolidin-3-yl)methoxy)pyrido[4,3-d]pyrimidine]",11.9
3,"Oc1ccc(CC(F)(F)F)c(-c2ncc3c(N4C[C@H]5CC[C@@H](C4)N5)nc(OC[C@@]45CCCN4C[C@H](F)C5)nc3c2F)c1 [Example 424, 3-(4-((1R,5S)-3,8-diazabicyclo[3.2.1]octan-3-yl)-8-fluoro-2-(((2R,7aS)-2-fluorohexahydro-1H-pyrrolizin-7a-yl)methoxy)pyrido[4,3-d]pyrimidin-7-yl)-4-(2,2,2-trifluoroethyl)phenol]",0.681
4,"Oc1cc(-c2ncc3c(N4C[C@H]5CC[C@@H](C4)N5)nc(OCC45CCCN4CCC5)nc3c2F)c2c(Cl)cccc2c1 [Example 36, 4-(4-((1R,5S)-3,8-diazabicyclo[3.2.1]octan-3-yl)-8-fluoro-2-((tetrahydro-1H-pyrrolizin-7a(5H)-yl)methoxy)pyrido[4,3-d]pyrimidin-7-yl)-5-chloronaphthalen-2-ol]",0.108
5,"Fc1c(-c2cccc3cccc(Cl)c23)ncc2c(N3C[C@H]4CC[C@@H](C3)N4)nc(OCC34CCCN3CCC4)nc12 [Example 45, 4-((1R,5S)-3,8-diazabicyclo[3.2.1]octan-3-yl)-7-(8-chloronaphthalen-1-yl)-8-fluoro-2-((tetrahydro-1H-pyrrolizin-7a(5H)-yl)methoxy)pyrido[4,3-d]pyrimidine]",0.84
6,"Fc1c(-c2cccc3cccc(-c4c[nH]nn4)c23)ncc2c(N3C[C@H]4CC[C@@H](C3)N4)nc(OCC34CCCN3CCC4)nc12 [Example 180, 7-(8-(1H-1,2,3-triazol-4-yl)naphthalen-1-yl)-4-((1R,5S)-3,8-diazabicyclo[3.2.1]octan-3-yl)-8-fluoro-2-((hexahydro-1H-pyrrolizin-7a-yl)methoxy)pyrido[4,3-d]pyrimidine]",> 16.7
7,"COC1(OC)CN2CCCC2(COc2nc(N3C[C@H]4CC[C@@H](C3)N4)c3cnc(-c4cccc5cccc(Cl)c45)c(F)c3n2)C1 (stereo partly drawn) [Example 404, 4-((1R,5S)-3,8-diazabicyclo[3.2.1]octan-3-yl)-7-(8-chloronaphthalen-1-yl)-2-((2,2-dimethoxytetrahydro-1H-pyrrolizin-7a(5H)-yl)methoxy)-8-fluoropyrido[4,3-d]pyrimidine]",8.33
8,"CCc1cccc2cc(O)cc(-c3ncc4c(N5C[C@H]6CC[C@@H](C5)N6)nc(OC[C@@]56CCCN5C[C@H](F)C6)nc4c3F)c12 [Example 259, 4-(4-((1R,5S)-3,8-diazabicyclo[3.2.1]octan-3-yl)-8-fluoro-2-(((2R,7aS)-2-fluorotetrahydro-1H-pyrrolizin-7a(5H)-yl)methoxy)pyrido[4,3-d]pyrimidin-7-yl)-5-ethylnaphthalen-2-ol]",0.0039
9,"Cc1cccc2cccc(-c3ncc4c(N5C[C@H]6CC[C@@H](C5)N6)nc(OC[C@@H]5CCCN5C)nc4c3F)c12 [Example 15, 4-((1R,5S)-3,8-diazabicyclo[3.2.1]octan-3-yl)-8-fluoro-7-(8-methylnaphthalen-1-yl)-2-(((S)-1-methylpyrrolidin-2-yl)methoxy)pyrido[4,3-d]pyrimidine]",> 16.7
10,"CCc1cccc2cc(O)cc(-c3ncc4c(N5C[C@H]6CC[C@@H](C5)N6)nc(OC[C@]56CCCN5[C@@H](COC(=O)NC)CC6)nc4c3F)c12 [Example 433, ((3R,7aR)-7a-(((4-((1R,5S)-3,8-diazabicyclo[3.2.1]octan-3-yl)-7-(8-ethyl-3-hydroxynaphthalen-1-yl)-8-fluoropyrido[4,3-d]pyrimidin-2-yl)oxy)methyl)hexahydro-1H-pyrrolizin-3-yl)methyl methylcarbamate]",0.0432
11,"CN1CCC[C@H]1COc1nc(N2C[C@H]3CC[C@@H](C2)N3)c2cnc(-c3cc(O)c(Br)c4ccccc34)c(F)c2n1 [Example 14, 4-(4-((1R,5S)-3,8-diazabicyclo[3.2.1]octan-3-yl)-8-fluoro-2-(((S)-1-methylpyrrolidin-2-yl)methoxy)pyrido[4,3-d]pyrimidin-7-yl)-1-bromonaphthalen-2-ol]",4.84
12,"C#Cc1cccc2cc(OC)cc(-c3ncc4c(N5C[C@H]6CC[C@@H](C5)N6)nc(OCC56CCCN5CCC6)nc4c3F)c12 [Example 231, 4-((1R,5S)-3,8-diazabicyclo[3.2.1]octan-3-yl)-7-(8-ethynyl-3-methoxynaphthalen-1-yl)-8-fluoro-2-((hexahydro-1H-pyrrolizin-7a-yl)methoxy)pyrido[4,3-d]pyrimidine]",2.81
13,"Cc1cc(-c2ncc3c(N4C[C@H]5CC[C@@H](C4)N5)nc(OCC45CCCN4CCC5)nc3c2F)c2c(Cl)cccc2c1 [Example 175, 4-((1R,5S)-3,8-diazabicyclo[3.2.1]octan-3-yl)-7-(8-chloro-3-methylnaphthalen-1-yl)-8-fluoro-2-((hexahydro-1H-pyrrolizin-7a-yl)methoxy)pyrido[4,3-d]pyrimidine]",> 5.56
14,Fc1c(-c2cccc3c2CCC3)ncc2c(N3CC4CCC(C3)N4)nc(OC[C@@]34CCCN3C[C@H](F)C4)nc12 [Example 428],6.96
15,"CN1CCC[C@H]1COc1nc(N2C[C@H]3CC[C@@H](C2)N3)c2cnc(-c3cccc4ccc(F)c(Cl)c34)c(F)c2n1 [Example 44, 4-((1R,5S)-3,8-diazabicyclo[3.2.1]octan-3-yl)-7-(8-chloro-7-fluoronaphthalen-1-yl)-8-fluoro-2-(((S)-1-methylpyrrolidin-2-yl)methoxy)pyrido[4,3-d]pyrimidine]",2.29
16,"Cn1ccnc1CCOc1nc(N2C[C@H]3CC[C@@H](C2)N3)c2cnc(-c3cc(O)cc4ccccc34)c(F)c2n1 [Example 3, 4-(4-((1R,5S)-3,8-diazabicyclo[3.2.1]octan-3-yl)-8-fluoro-2-(2-(1-methyl-1H-imidazol-2-yl)ethoxy)pyrido[4,3-d]pyrimidin-7-yl)naphthalen-2-ol]",10.3
17,"CN(C)C1CN(c2nc(N3C[C@H]4CC[C@@H](C3)N4)c3cnc(-c4cc(O)cc5ccccc45)c(F)c3n2)C1 [Example 120, 4-(4-((1R,5S)-3,8-diazabicyclo[3.2.1]octan-3-yl)-2-(3-(dimethylamino)azetidin-1-yl)-8-fluoropyrido[4,3-d]pyrimidin-7-yl)naphthalen-2-ol bis(2,2,2-trifluoroacetate)]",2.09
18,"NC(=O)Cc1cccc2cccc(-c3ncc4c(N5C[C@H]6CC[C@@H](C5)N6)nc(OCC56CCCN5CCC6)nc4c3F)c12 [Example 240, 2-(8-(4-((1R,5S)-3,8-diazabicyclo[3.2.1]octan-3-yl)-8-fluoro-2-((tetrahydro-1H-pyrrolizin-7a(5H)-yl)methoxy)pyrido[4,3-d]pyrimidin-7-yl)naphthalen-1-yl)acetamide]",> 16.7
19,"Fc1cccc(-c2ncc3c(N4C[C@H]5CC[C@@H](C4)N5)nc(OCC45CCCN4CCC5)nc3c2F)c1C1CC1 [Example 304, 4-((1R,5S)-3,8-diazabicyclo[3.2.1]octan-3-yl)-7-(2-cyclopropyl-3-fluorophenyl)-8-fluoro-2-((hexahydro-1H-pyrrolizin-7a-yl)methoxy)pyrido[4,3-d]pyrimidine]",1.42
20,"Oc1cc(-c2ncc3c(N4C[C@H]5CC[C@@H](C4)N5)nc(OC[C@@H]4CCCN4Cc4ccccc4)nc3c2F)c2ccccc2c1 [Example 12, 4-(2-(((S)-1-benzylpyrrolidin-2-yl)methoxy)-4-((1R,5S)-3,8-diazabicyclo[3.2.1]octan-3-yl)-8-fluoropyrido[4,3-d]pyrimidin-7-yl)naphthalen-2-ol]",4.91
21,"CN1CCC[C@H]1COc1nc(N2CC3C[C@@H](O)C(C2)N3)c2cnc(-c3cc(O)cc4ccccc34)c(F)c2n1 (stereo partly drawn) [Example 31, 3-(8-fluoro-7-(3-hydroxynaphthalen-1-yl)-2-(((S)-1-methylpyrrolidin-2-yl)methoxy)pyrido[4,3-d]pyrimidin-4-yl)-3,8-diazabicyclo[3.2.1]octan-6-ol]",2.43
22,"COC[C@H]1CC[C@@]2(COc3nc(N4CC5CCC(C4)N5)c4cnc(-c5cc(O)cc6ccccc56)c(F)c4n3)CCCN12 (stereo in doubt) [Example 389, 4-(4-((1R,5S)-3,8-diazabicyclo[3.2.1]octan-3-yl)-8-fluoro-2-((3-(methoxymethyl)tetrahydro-1H-pyrrolizin-7a(5H)-yl)methoxy)pyrido[4,3-d]pyrimidin-7-yl)naphthalen-2-ol]",0.781
23,"CCN1CCC[C@H]1COc1nc(N2C[C@H]3CC[C@@H](C2)N3)c2cnc(-c3cc(O)cc4ccccc34)c(F)c2n1 [Example 11, 4-(4-((1R,5S)-3,8-diazabicyclo[3.2.1]octan-3-yl)-2-(((S)-1-ethylpyrrolidin-2-yl)methoxy)-8-fluoropyrido[4,3-d]pyrimidin-7-yl)naphthalen-2-ol]",1.08
